Data from the NIST ThermoML archive (doi:10.1021/je100832h).
Numbers after ± are expanded uncertainties.

How the values were obtained:
[1] = xn = mol fraction of the nth substance listed; details: 101.32 kPa, Liquid, Vibrating tube method
[2] = excess molar enthalpy (molar enthalpy of mixing); xn = mol fraction of the nth substance listed; details: 291.15 K, 101 kPa, Liquid, Calvet calorimetry

CCOC(C)=O [ethyl acetate] + CCCCCCC
[1]
Details | mass density [kg/m3]
291.15 K, x1 = 0.0161 | 687.34 ± 0.32
291.15 K, x1 = 0.0572 | 692.44 ± 0.32
291.15 K, x1 = 0.1159 | 700.33 ± 0.32
291.15 K, x1 = 0.2057 | 713.27 ± 0.32
291.15 K, x1 = 0.2894 | 726.55 ± 0.32
291.15 K, x1 = 0.3673 | 740 ± 0.32
291.15 K, x1 = 0.4396 | 753.43 ± 0.32
291.15 K, x1 = 0.5126 | 768.17 ± 0.33
291.15 K, x1 = 0.5792 | 782.54 ± 0.32
291.15 K, x1 = 0.6414 | 796.91 ± 0.32
291.15 K, x1 = 0.7006 | 811.5 ± 0.32
291.15 K, x1 = 0.7555 | 825.89 ± 0.31
291.15 K, x1 = 0.8141 | 842.35 ± 0.31
291.15 K, x1 = 0.8631 | 856.84 ± 0.31
291.15 K, x1 = 0.9105 | 872 ± 0.3
291.15 K, x1 = 0.9718 | 892.61 ± 0.3
291.15 K, x1 = 1 | 902.88 ± 0.3
298.15 K, x1 = 0.0409 | 684.35 ± 0.32
298.15 K, x1 = 0.0568 | 686.42 ± 0.32
298.15 K, x1 = 0.1196 | 694.72 ± 0.32
298.15 K, x1 = 0.1493 | 698.85 ± 0.32
298.15 K, x1 = 0.2079 | 707.39 ± 0.32
298.15 K, x1 = 0.2587 | 715.2 ± 0.32
298.15 K, x1 = 0.2981 | 721.51 ± 0.32
298.15 K, x1 = 0.3171 | 724.7 ± 0.32
298.15 K, x1 = 0.3703 | 733.9 ± 0.32
298.15 K, x1 = 0.4203 | 743.04 ± 0.32
298.15 K, x1 = 0.4911 | 756.8 ± 0.33
298.15 K, x1 = 0.5587 | 770.85 ± 0.32
298.15 K, x1 = 0.6169 | 783.73 ± 0.32
298.15 K, x1 = 0.6668 | 795.46 ± 0.32
298.15 K, x1 = 0.727 | 810.54 ± 0.32
298.15 K, x1 = 0.778 | 824.17 ± 0.31
298.15 K, x1 = 0.8302 | 839.02 ± 0.31
298.15 K, x1 = 0.8787 | 853.8 ± 0.31
298.15 K, x1 = 0.9206 | 867.23 ± 0.3
298.15 K, x1 = 0.9879 | 890.2 ± 0.3
298.15 K, x1 = 1 | 894.4 ± 0.3
318.15 K, x1 = 0.053 | 668.2 ± 0.32
318.15 K, x1 = 0.0902 | 672.9 ± 0.32
318.15 K, x1 = 0.1685 | 683.15 ± 0.32
318.15 K, x1 = 0.2326 | 692.18 ± 0.32
318.15 K, x1 = 0.2439 | 693.85 ± 0.32
318.15 K, x1 = 0.2981 | 702.14 ± 0.32
318.15 K, x1 = 0.3991 | 719.02 ± 0.33
318.15 K, x1 = 0.4184 | 722.43 ± 0.33
318.15 K, x1 = 0.4793 | 733.7 ± 0.33
318.15 K, x1 = 0.528 | 743.25 ± 0.33
318.15 K, x1 = 0.5785 | 753.7 ± 0.33
318.15 K, x1 = 0.6277 | 764.5 ± 0.32
318.15 K, x1 = 0.6774 | 775.92 ± 0.32
318.15 K, x1 = 0.7248 | 787.48 ± 0.32
318.15 K, x1 = 0.7652 | 797.95 ± 0.32
318.15 K, x1 = 0.7914 | 804.97 ± 0.31
318.15 K, x1 = 0.8486 | 821.19 ± 0.31
318.15 K, x1 = 0.9067 | 838.76 ± 0.31
318.15 K, x1 = 0.9554 | 854.25 ± 0.31
318.15 K, x1 = 1 | 869.6 ± 0.3
328.15 K, x1 = 0.0084 | 654.45 ± 0.33
328.15 K, x1 = 0.1044 | 665.69 ± 0.32
328.15 K, x1 = 0.1911 | 676.99 ± 0.32
328.15 K, x1 = 0.2817 | 690.09 ± 0.32
328.15 K, x1 = 0.3479 | 700.46 ± 0.32
328.15 K, x1 = 0.423 | 713.16 ± 0.33
328.15 K, x1 = 0.488 | 725.11 ± 0.33
328.15 K, x1 = 0.5492 | 737.13 ± 0.33
328.15 K, x1 = 0.621 | 752.34 ± 0.32
328.15 K, x1 = 0.6655 | 762.36 ± 0.32
328.15 K, x1 = 0.7209 | 775.45 ± 0.32
328.15 K, x1 = 0.7755 | 789.39 ± 0.32
328.15 K, x1 = 0.8274 | 803.37 ± 0.31
328.15 K, x1 = 0.8717 | 815.94 ± 0.31
328.15 K, x1 = 0.9217 | 831.14 ± 0.31
328.15 K, x1 = 0.9731 | 847.9 ± 0.31
328.15 K, x1 = 1 | 857.17 ± 0.31

[2]
Details | excess molar enthalpy [kcal/mol]
x1 = 0.0704 | 0.107 ± 0.00239
x1 = 0.1554 | 0.198 ± 0.0043
x1 = 0.2363 | 0.272 ± 0.00574
x1 = 0.3039 | 0.323 ± 0.00693
x1 = 0.3738 | 0.358 ± 0.00765
x1 = 0.4354 | 0.375 ± 0.00813
x1 = 0.4887 | 0.379 ± 0.00813
x1 = 0.5306 | 0.376 ± 0.00813
x1 = 0.5794 | 0.367 ± 0.00789
x1 = 0.6196 | 0.355 ± 0.00765
x1 = 0.6682 | 0.335 ± 0.00717
x1 = 0.7293 | 0.299 ± 0.00645
x1 = 0.7913 | 0.256 ± 0.0055
x1 = 0.8405 | 0.204 ± 0.0043
x1 = 0.9015 | 0.137 ± 0.00311
x1 = 0.9556 | 0.0667 ± 0.00167
